Experimental findings from ChEMBL document CHEMBL3714726, “Substituted quinoxaline carboxylic acids for the inhibition of PASK” (2014) are described below.

Data set [1] deals with PAS domain-containing serine/threonine-protein kinase (Homo sapiens, UniProt Q96RG2). Description: Inhibition of human recombinant PASK using Ulight-peptide substrate incubated for 2 hrs by TR-FRET assay.
A short description of data set [2]: Half life in Sprague-Dawley rat at 1 mg/kg, iv after 0.083 to 24 hrs by LC-MS/MS method. In kind it is ADME, organism-based. To be noted: in vivo.

PAS domain-containing serine/threonine-protein kinase, sequence (Q96RG2 whole entry, the tested form may be a part): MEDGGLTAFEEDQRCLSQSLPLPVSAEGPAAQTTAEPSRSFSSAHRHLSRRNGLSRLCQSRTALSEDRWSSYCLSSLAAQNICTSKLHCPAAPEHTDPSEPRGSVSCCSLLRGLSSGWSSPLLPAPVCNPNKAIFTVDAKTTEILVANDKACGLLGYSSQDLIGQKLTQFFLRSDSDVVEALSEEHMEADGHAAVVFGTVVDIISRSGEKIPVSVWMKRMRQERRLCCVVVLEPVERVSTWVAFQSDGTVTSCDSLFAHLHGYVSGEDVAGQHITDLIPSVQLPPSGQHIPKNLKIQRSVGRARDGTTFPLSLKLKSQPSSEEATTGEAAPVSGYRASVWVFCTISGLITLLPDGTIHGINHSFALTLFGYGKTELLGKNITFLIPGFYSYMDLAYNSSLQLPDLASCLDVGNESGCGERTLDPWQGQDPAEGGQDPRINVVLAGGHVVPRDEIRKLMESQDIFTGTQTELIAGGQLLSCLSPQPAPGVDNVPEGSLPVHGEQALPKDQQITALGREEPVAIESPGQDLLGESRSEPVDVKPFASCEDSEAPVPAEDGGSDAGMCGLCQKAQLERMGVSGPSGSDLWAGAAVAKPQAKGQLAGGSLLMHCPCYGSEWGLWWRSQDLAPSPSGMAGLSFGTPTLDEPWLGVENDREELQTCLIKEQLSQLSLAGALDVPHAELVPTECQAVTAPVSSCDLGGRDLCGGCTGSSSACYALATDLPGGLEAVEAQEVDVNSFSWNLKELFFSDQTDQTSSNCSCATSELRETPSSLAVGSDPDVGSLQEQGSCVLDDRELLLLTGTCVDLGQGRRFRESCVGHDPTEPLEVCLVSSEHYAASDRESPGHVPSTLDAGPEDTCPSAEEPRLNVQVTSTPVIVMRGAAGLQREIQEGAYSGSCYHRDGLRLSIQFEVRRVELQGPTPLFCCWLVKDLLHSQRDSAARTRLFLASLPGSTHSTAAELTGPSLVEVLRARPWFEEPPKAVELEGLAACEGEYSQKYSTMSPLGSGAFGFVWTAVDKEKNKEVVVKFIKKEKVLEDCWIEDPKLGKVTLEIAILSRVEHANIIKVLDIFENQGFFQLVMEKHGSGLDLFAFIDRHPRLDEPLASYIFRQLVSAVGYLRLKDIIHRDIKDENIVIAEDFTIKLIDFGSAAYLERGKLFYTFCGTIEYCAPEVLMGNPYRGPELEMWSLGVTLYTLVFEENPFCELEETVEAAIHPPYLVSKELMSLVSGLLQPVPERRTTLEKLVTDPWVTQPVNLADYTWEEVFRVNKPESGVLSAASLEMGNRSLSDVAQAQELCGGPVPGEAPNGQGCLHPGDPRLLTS

In the case of `CC(C)N(C)c1nc2cc(C(=O)O)ccc2nc1-c1nc2ccccc2o1`, the IC50 in data set [1] was at most 10 µM.
As to `COc1ccc(-c2nc3ccc(C(=O)O)cc3nc2N(C)C(C)C)cn1`, in data set [1], the concentration for half-maximal inhibition (IC50) was at most 10 µM.
On to `C[C@H]1COCCN1c1nc2cc(C(=O)O)ccc2nc1-c1ccc(F)cc1`, for which the half-life in data set [2] is 7.72 h.
